The text below walks through data of PMC4552634, “A New Set of Chemical Starting Points with Plasmodium falciparum Transmission-Blocking Potential for Antimalarial Drug Discovery” (PLoS ONE, 2015).

Where two headings read alike, the source gives them in different places. A value given as a limit tells only on which side of the number the result lay.

The test system of series [1] is P. falciparum asexual stages. Conditions: TCAMS data, cited from earlier work.
Series [2] has as its system P. falciparum stage V gametocytes. Nature of the series: Gametocytocidal ATP bioluminescence assay (single point 5 μM and 1 μM, dose-response). Format: cell-based, Plasmodium falciparum. Conditions: for Ratio IC50 HepG2/IC50 P. falciparum: IC50 HepG2 divided by IC50 P. falciparum gametocytes.
Procedure: Purified stage IV-V gametocytes were obtained as previously described [10]. Single point ATP bioluminescence assay and dose–response of positive hits was determined in accordance with the previously published protocol [10].
Series [3] is described as follows: Cytotoxicity in HepG2 cells (intracellular ATP, ATPlite, 48 h). Format: cell-based, human. Conditions: human, HepG2 cells; IC50 per ratio column head; unit inferred; read-out: Cytotoxicity in HepG2.
The test system of a further series is HepG2 cells. Described as above. Format: cell-based, human. To be noted: IC50 HepG2 divided by IC50 P. falciparum gametocytes.
[4] abbreviates: asexual stages, read-out: IC50 asexual.
Setting [5] is: Plasmodium falciparum, P. falciparum gametocytes, average, read-out: IC50 Pf Gametocytes average, IC50 (µM) average.
[6] abbreviates: sexual stages (gametocytes), dose-response, read-out: IC50 sexual.
[7] abbreviates: P. falciparum asexual stages, read-out: IC50 (µM) Pf asexual stages.

As for `COc1cc(CCNC(=N)/C=C/c2ccc(Cl)cc2)ccc1Cl` [TCMDC-137457], the values for the IC50 in series [1] (setting [4]) and in series [2] (setting [5]) were 0.241 µM and 0.28 µM, respectively. The “Ratio IC50 HepG2/IC50 P. falciparum” value (in series [2]; in the series on HepG2 cells) was 50 each time. Also, the IC50 at 48 h in series [3] amounted to 14000 nM.

Consider `CCN(CC)C(=NC(=N)NCCCCCCNC(=N)N=C(Nc1ccc(Cl)cc1)N(CC)CC)Nc1ccc(Cl)cc1` [TCMDC-131807], for which the IC50 was 0.927 µM in series [1] (setting [4]), 0.37 µM in series [2] (setting [5]) and 0.365 µM in series [2] (setting [6]). Moreover, the “Ratio IC50 HepG2/IC50 P. falciparum” value (in series [2]; in the series with HepG2 cells) was above 68 each time. In addition, the IC50 at 48 h in series [3] is above 25000 nM.

`COc1cc2c(c(Cl)c1OC)CCN(C(=O)C(F)(F)F)CC2c1ccccc1` (stereo not drawn) [TCMDC-132071]: the figures for the IC50 in series [1] (setting [7]), in series [1] (setting [4]) and in series [2] (setting [5]) were 0.44 µM, 0.441 µM and 1.95 µM, respectively. Besides, the “Ratio IC50 HepG2/IC50 P. falciparum” value (in series [2]; with HepG2 cells) was above 13 each time. Moreover, in series [3], the IC50 at 48 h was above 25000 nM.

Take `CC(C)CCNC(=N)Nc1ccc(OCCCOc2ccc(NC(=N)NCCC(C)C)cc2)cc1` [TCMDC-137615]: the IC50 in series [1] (setting [4]) is 0.2 µM; in series [2] (setting [5]), 0.29 µM. Moreover, the “Ratio IC50 HepG2/IC50 P. falciparum” value (in series [2]; in the series on HepG2 cells) was above 86 each time. Moreover, the IC50 at 48 h in series [3] was above 25000 nM.

`Cc1sc2ncnc(Sc3nnc(N)s3)c2c1C` [TCMDC-124542]: the figures for the IC50 in series [1] (setting [7]), in series [1] (setting [4]) and in series [2] (setting [5]) were 0.4 µM, 0.399 µM and 0.3 µM, respectively. Moreover, the “Ratio IC50 HepG2/IC50 P. falciparum” value (in series [2]; in the series on HepG2 cells) was above 83 in each case. Also, in series [3], the IC50 at 48 h is above 25000 nM.

Regarding `C=C[C@H]1CN(CCCCCCC)CC[C@H]1CCNc1ccnc2ccc(OC)cc12` [TCMDC-139204], the IC50 in series [1] (setting [4]) was 0.062 µM; in series [2] (setting [5]), 1.08 µM. In addition, in series [2], the “Ratio IC50 HepG2/IC50 P. falciparum” value amounted to 3. Further, the IC50 at 48 h in series [3] came to 3400 nM.

For the compound `COc1cccc(-c2csc(C(=O)NCC3CCN(Cc4ccc(C(C)(C)C)cc4)C3)c2)c1` (stereo not drawn) [TCMDC-134447], the IC50 was 1.18 µM in series [1] (setting [4]) and 0.23 µM in series [2] (setting [5]). Besides, the “Ratio IC50 HepG2/IC50 P. falciparum” value in series [2] is recorded as 41. The IC50 at 48 h in series [3] came out at 9500 nM.

For `FC(F)(F)c1ccc2[nH]c(-c3ccc(-c4ccc(CNCCN5CCNCC5)cc4)s3)nc2c1` [TCMDC-132862], the IC50 in series [1] (setting [4]) is 0.91 µM; in series [2] (Plasmodium falciparum, read-out: IC50 Pf Gametocytes average, IC50 (µM) average) it was 1.29 µM; in series [2] (Plasmodium falciparum, read-out: IC50 sexual), 1.28 µM. Moreover, the “Ratio IC50 HepG2/IC50 P. falciparum” value in series [2] is recorded as 5.37. In addition, the “%_Inh” value in series [2] (gametocytes, primary screen at 5 μM (S10 Table, MCSI analogs)) worked out at 105.547%. Moreover, in series [3], the IC50 at 48 h came out at 6900 nM.

`COc1cc2nc(NCc3cccc(CNC(=O)c4ccc(-c5ccc(C(C)=O)cc5)cc4)c3)nc(N)c2cc1OC.O=C(O)C(F)(F)F` [TCMDC-138177]: the IC50 in series [1] (setting [4]) is 0.118 µM; in series [2] (setting [5]), 2 µM; in series [2] (setting [6]) it was 2 µM. Also, the “Ratio IC50 HepG2/IC50 P. falciparum” value in series [2] came out at 5. For the same compound, the IC50 at 48 h in series [3] was 9500 nM.

Consider `CC(CNC(=N)c1cccc(C(=N)NCC(C)Oc2cccc(C3CCCCC3)c2)n1)Oc1cccc(C2CCCCC2)c1.Cl` (stereo not drawn) [TCMDC-137455], for which the IC50 in series [1] (setting [4]) is 0.917 µM; in series [2] (setting [5]), 0.24 µM. For the same compound, the “Ratio IC50 HepG2/IC50 P. falciparum” value in series [2] was determined as 15. The IC50 at 48 h in series [3] stood at 3530 nM.

As for `CC(C)(C)c1ccc(CN2CCC(CNC(=O)c3cc(-c4ccccc4C(F)(F)F)cs3)C2)cc1` (stereo not drawn) [TCMDC-134441], the IC50 in series [1] (setting [4]) was 1.24 µM; in series [2] (setting [5]) it was 0.31 µM; in series [2] (setting [6]) it was 0.305 µM. Further, the “Ratio IC50 HepG2/IC50 P. falciparum” value in series [2] was found to be 21. Further, the IC50 at 48 h in series [3] was determined as 6400 nM.

Turning to `CC(C)(C)c1ccc(CN2CCC(CNC(=O)c3cc(-c4cccc(C(F)(F)F)c4)cs3)C2)cc1` (stereo not drawn) [TCMDC-134442], the IC50 in series [1] (setting [4]) was 1.03 µM; in series [2] (setting [5]), 0.42 µM. Moreover, the “Ratio IC50 HepG2/IC50 P. falciparum” value in series [2] was found to be 12. Further, the IC50 at 48 h in series [3] worked out at 4900 nM.
